The results in this text go back to patent publication US9604996B2 (Bayer Pharma Aktiengesellschaft, priority 2013, dated 2017).

The target in this test is T1, human adenosine A2b receptor (Homo sapiens, UniProt P29275).
T1 construct: expressed in transfected cells; host or cells: CHO-K1 (Chinese Hamster Ovary) with CRE-luciferase reporter
T1 sequence (P29275 1-332): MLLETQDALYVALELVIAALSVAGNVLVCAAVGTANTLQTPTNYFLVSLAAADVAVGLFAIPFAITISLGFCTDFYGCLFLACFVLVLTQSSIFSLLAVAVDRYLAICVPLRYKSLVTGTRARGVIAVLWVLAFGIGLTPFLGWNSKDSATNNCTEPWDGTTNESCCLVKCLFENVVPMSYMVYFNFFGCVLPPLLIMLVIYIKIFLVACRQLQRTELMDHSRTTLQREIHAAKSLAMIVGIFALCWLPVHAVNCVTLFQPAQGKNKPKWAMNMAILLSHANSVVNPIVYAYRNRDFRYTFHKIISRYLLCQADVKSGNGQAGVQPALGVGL
Put plainly: Cellular reporter gene (CRE-luciferase) A2b receptor antagonist assay in recombinant CHO-K1 cells stimulated with NECA. The format is cell-based. To be noted: recombinant CHO-K1 cell line, co-incubation with EC50 concentration of NECA, 3 hours, in some cases means, rounded to two significant digits. The essentials:
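CHO-K1 cells expressing human A2b receptor with a CRE-driven firefly luciferase reporter, co-incubated with test compound and NECA at its same-day EC50 concentration. Luminescence read 3 hours after NECA addition.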
On the technique in general: In a reporter assay the amount or activity of a reporter protein is the signal.

Structures are written as SMILES.

By IC50 is commonly meant the concentration needed to halve the response being measured. Turning to `Cc1c(C(=O)N2CCC(O)(CO)CC2)sc2c1c(=O)n(CCc1ccccc1)c(=O)n2CCOC(F)(F)F` [Example 110, 6-{[4-Hydroxy-4-(hydroxymethyl)piperidin-1-yl]carbonyl}-5-methyl-3-(2-phenylethyl)-1-[2-(trifluoromethoxy)ethyl]thieno[2,3-d]pyrimidine-2,4(1H,3H)-dione], the half-inhibitory concentration (IC50) came out at 14 nM. With `CCn1c(=O)c2c(C)c(C(=O)N3CCC(C)(O)CC3)sc2n(CCOC(F)(F)F)c1=O` [Example 111, 3-Ethyl-6-[(4-hydroxy-4-methylpiperidin-1-yl)carbonyl]-5-methyl-1-[2-(trifluoromethoxy)ethyl]thieno[2,3-d]pyrimidine-2,4(1H,3H)-dione] the figure was 4 nM; with `CCn1c(=O)c2c(C)c(C(=O)N3CCC(O)(CC)CC3)sc2n(CCOC(F)(F)F)c1=O` [Example 112, 3-Ethyl-6-[(4-ethyl-4-hydroxypiperidin-1-yl)carbonyl]-5-methyl-1-[2-(trifluoromethoxy)ethyl]thieno[2,3-d]pyrimidine-2,4(1H,3H)-dione], 7.9 nM; with `CCn1c(=O)c2c(C)c(C(=O)N3CCC(O)(CC)CC3)sc2n(CCC(F)(F)F)c1=O` [Example 113, 3-Ethyl-6-[(4-ethyl-4-hydroxypiperidin-1-yl)carbonyl]-5-methyl-1-(3,3,3-trifluoropropyl)thieno[2,3-d]pyrimidine-2,4(1H,3H)-dione], 70 nM. With `CCn1c(=O)c2c(C(F)F)c(C(=O)N3CCC(O)CC3)sc2n(CCC(F)(F)F)c1=O` [Example 122, 5-(Difluoromethyl)-3-ethyl-6-[(4-hydroxypiperidin-1-yl)carbonyl]-1-(3,3,3-trifluoropropyl)thieno[2,3-d]pyrimidine-2,4(1H,3H)-dione] the figure was 32 nM; with `CCn1c(=O)c2c(C(F)F)c(C(=O)N3CCC(O)CC3)sc2n(CCOC(F)(F)F)c1=O` [Example 123, 5-(Difluoromethyl)-3-ethyl-6-[(4-hydroxypiperidin-1-yl)carbonyl]-1-[2-(trifluoromethoxy)ethyl]thieno[2,3-d]pyrimidine-2,4(1H,3H)-dione], 18 nM; with `CCn1c(=O)c2c(C(F)F)c(C(=O)N3CCC(C)(O)CC3)sc2n(CCC(F)(F)F)c1=O` [Example 124, 5-(Difluoromethyl)-3-ethyl-6-[(4-hydroxy-4-methylpiperidin-1-yl)carbonyl]-1-(3,3,3-trifluoropropyl)thieno[2,3-d]pyrimidine-2,4(1H,3H)-dione], 37 nM.

Turning to `CCn1c(=O)c2c(C(F)F)c(C(=O)N3CCC(O)(CC)CC3)sc2n(CCC(F)(F)F)c1=O` [Example 125, 5-(Difluoromethyl)-3-ethyl-6-[(4-ethyl-4-hydroxypiperidin-1-yl)carbonyl]-1-(3,3,3-trifluoropropyl)thieno[2,3-d]pyrimidine-2,4(1H,3H)-dione], the 50% inhibitory concentration (IC50) came out at 48 nM. `CCn1c(=O)c2c(C(F)F)c(C(=O)N3CCC(O)(CO)CC3)sc2n(CCC(F)(F)F)c1=O` [Example 126]: the 50% inhibitory concentration (IC50) is 84 nM. For `CCn1c(=O)c2c(C(F)F)c(C(=O)N3CCC(C)(O)CC3)sc2n(CCOC(F)(F)F)c1=O` [Example 127, 5-(Difluoromethyl)-3-ethyl-6-[(4-hydroxy-4-methylpiperidin-1-yl)carbonyl]-1-[2-(trifluoromethoxy)ethyl]thieno[2,3-d]pyrimidine-2,4(1H,3H)-dione] the value was 9.5 nM.

With `CCc1c(C(=O)N2CCC(O)(CC)CC2)sc2c1c(=O)n(CC)c(=O)n2CCC(F)(F)F` [Example 128, 3,5-Diethyl-6-[(4-ethyl-4-hydroxypiperidin-1-yl)carbonyl]-1-(3,3,3-trifluoropropyl)thieno[2,3-d]pyrimidine-2,4(1H,3H)-dione], the IC50 turned out to be 13 nM. Turning to `Cc1c(C(=O)N2CCNC(=O)C2)sc2c1c(=O)n(CCc1ccccc1)c(=O)n2CCOC(F)(F)F` [Example 129, 5-Methyl-6-[(3-oxopiperazin-1-yl)carbonyl]-3-(2-phenylethyl)-1-[2-(trifluoromethoxy)ethyl]thieno[2,3-d]pyrimidine-2,4(1H,3H)-dione], the half-inhibitory concentration (IC50) turned out to be 12 nM.

As for `CCn1c(=O)c2c(C)c(C(=O)N3CCNC(=O)C3)sc2n(CCOC(F)(F)F)c1=O` [Example 130, 3-Ethyl-5-methyl-6-[(3-oxopiperazin-1-yl)carbonyl]-1-[2-(trifluoromethoxy)ethyl]thieno[2,3-d]pyrimidine-2,4(1H,3H)-dione], the concentration for half-maximal inhibition (IC50) is 9 nM. For `CCn1c(=O)c2c(C(F)F)c(C(=O)N3CCNC(=O)C3)sc2n(CCC(F)(F)F)c1=O` [Example 131, 5-(Difluoromethyl)-3-ethyl-6-[(3-oxopiperazin-1-yl)carbonyl]-1-(3,3,3-trifluoropropyl)thieno[2,3-d]pyrimidine-2,4(1H,3H)-dione] the value was 34 nM.

Regarding `CCn1c(=O)c2c(C)c(C(=O)N3CCC(O)CC3)sc2n(CCC(C)C)c1=O` [Example 134, 3-Ethyl-6-[(4-hydroxypiperidin-1-yl)carbonyl]-5-methyl-1-(3-methylbutyl)thieno[2,3-d]pyrimidine-2,4(1H,3H)-dione], the IC50 stood at 360 nM.

In the case of `CCn1c(=O)c2c(C)c(C(=O)N3CCC(O)CC3)sc2n(CCCC(F)(F)F)c1=O` [Example 135, 3-Ethyl-6-[(4-hydroxypiperidin-1-yl)carbonyl]-5-methyl-1-(4,4,4-trifluorobutyl)thieno[2,3-d]pyrimidine-2,4(1H,3H)-dione], the 50% inhibitory concentration (IC50) was determined as 94 nM. Consider `CCn1c(=O)c2c(C)c(C(=O)N3CCC(O)CC3)sc2n(CCC(F)=C(F)F)c1=O` [Example 136, 3-Ethyl-6-[(4-hydroxypiperidin-1-yl)carbonyl]-5-methyl-1-(3,4,4-trifluorobut-3-en-1-yl)thieno[2,3-d]pyrimidine-2,4(1H,3H)-dione], for which the IC50 came out at 310 nM. For `CC(C)Cn1c(=O)c2c(C(F)F)c(C(=O)N3CCC(O)CC3)sc2n(CCOC(F)(F)F)c1=O` [Example 137, 5-(Difluoromethyl)-6-[(4-hydroxypiperidin-1-yl)carbonyl]-3-isobutyl-1-[2-(trifluoromethoxy)ethyl]thieno[2,3-d]pyrimidine-2,4(1H,3H)-dione] the value was 12 nM; for `CC(C)Cn1c(=O)c2c(C(F)F)c(C(=O)N3CCC(C)(O)CC3)sc2n(CCOC(F)(F)F)c1=O` [Example 138, 5-(Difluoromethyl)-6-[(4-hydroxy-4-methylpiperidin-1-yl)carbonyl]-3-isobutyl-1-[2-(trifluoromethoxy)ethyl]thieno[2,3-d]pyrimidine-2,4(1H,3H)-dione], 15 nM; for `CC(C)Cn1c(=O)c2c(C(F)F)c(C(=O)N3CCC(O)CC3)sc2n(CCC(F)(F)F)c1=O` [Example 139, 5-(Difluoromethyl)-6-[(4-hydroxypiperidin-1-yl)carbonyl]-3-isobutyl-1-(3,3,3-trifluoropropyl)thieno[2,3-d]pyrimidine-2,4(1H,3H)-dione], 39 nM. As for `CC(C)Cn1c(=O)c2c(C(F)F)c(C(=O)N3CCC(C)(O)CC3)sc2n(CCC(F)(F)F)c1=O` [Example 140, 5-(Difluoromethyl)-6-[(4-hydroxy-4-methylpiperidin-1-yl)carbonyl]-3-isobutyl-1-(3,3,3-trifluoropropyl)thieno[2,3-d]pyrimidine-2,4(1H,3H)-dione], the 50% inhibitory concentration (IC50) worked out at 39 nM. For `CCCn1c(=O)c2c(C(F)F)c(C(=O)N3CCC(O)CC3)sc2n(CCC(F)(F)F)c1=O` [Example 141, 5-(Difluoromethyl)-6-[(4-hydroxypiperidin-1-yl)carbonyl]-3-propyl-1-(3,3,3-trifluoropropyl)thieno[2,3-d]pyrimidine-2,4(1H,3H)-dione] the value was 57 nM; for `CCCn1c(=O)c2c(C(F)F)c(C(=O)N3CCC(C)(O)CC3)sc2n(CCC(F)(F)F)c1=O` [Example 142, 5-(Difluoromethyl)-6-[(4-hydroxy-4-methylpiperidin-1-yl)carbonyl]-3-propyl-1-(3,3,3-trifluoropropyl)thieno[2,3-d]pyrimidine-2,4(1H,3H)-dione], 53 nM; for `CCn1c(=O)c2c(CF)c(C(=O)N3CCC(O)CC3)sc2n(CCC(F)(F)F)c1=O` [Example 143, 3-Ethyl-5-(fluoromethyl)-6-[(4-hydroxypiperidin-1-yl)carbonyl]-1-(3,3,3-trifluoropropyl)thieno[2,3-d]pyrimidine-2,4(1H,3H)-dione], 82 nM. With `CCn1c(=O)c2c(CF)c(C(=O)N3CCC(C)(O)CC3)sc2n(CCC(F)(F)F)c1=O` [Example 144, 3-Ethyl-5-(fluoromethyl)-6-[(4-hydroxy-4-methylpiperidin-1-yl)carbonyl]-1-(3,3,3-trifluoropropyl)thieno[2,3-d]pyrimidine-2,4(1H,3H)-dione] the figure was 170 nM; with `CCCn1c(=O)c2c(C(F)F)c(C(=O)N3CCC(O)CC3)sc2n(CCOC(F)(F)F)c1=O` [Example 150, 5-(Difluoromethyl)-6-[(4-hydroxypiperidin-1-yl)carbonyl]-3-propyl-1-[2-(trifluoromethoxy)ethyl]thieno[2,3-d]pyrimidine-2,4(1H,3H)-dione], 9.8 nM; with `CCCn1c(=O)c2c(C(F)F)c(C(=O)N3CCC(C)(O)CC3)sc2n(CCOC(F)(F)F)c1=O` [Example 151, 5-(Difluoromethyl)-6-[(4-hydroxy-4-methylpiperidin-1-yl)carbonyl]-3-propyl-1-[2-(trifluoromethoxy)ethyl]thieno[2,3-d]pyrimidine-2,4(1H,3H)-dione], 14 nM.
